The results in this text go back to the METLIN SMRT retention time set (Domingo-Almenara et al. 2019).

SMILES strings stand for the structures.

The data set in a line: gradient 5% acetonitrile 3 min, to 50% in 2 min, to 85% in 15 min, held 3 min, 100 µL/min. The note with it: column: Zorbax Extend-C18 2.1 x 50 mm; eluents: water / acetonitrile, 0.1% formic acid. The essentials:
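The mobile phases were water and acetonitrile, each with 0.1% formic acid, pumped at 100 μL/min through a Zorbax Extend-C18 column (2.1 × 50 mm, 1.8 μm). Pure standards were injected as mixtures of ~100 molecules and detected by a quadrupole time-of-flight mass spectrometer in positive and negative ionization mode. Retention time came from computationally picked adduct peaks, each inspected by hand.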
In turn, `O=c1ccn(-c2ccc(F)c(F)c2)nc1-c1nc(-c2cccc(F)c2)no1` returned an RP-LC retention time of 923 s. Turning to `CCOc1ccc(NC(=O)N2CCc3[nH]cnc3C2c2ccncc2)cc1` (stereo not given), the RP-LC retention time turned out to be 561 s. The same measure for `CN(C)CCn1nnc2cc(-c3noc(Cc4cccc(F)c4)n3)ccc21`: 668 s; for `O=C(Cc1ccccc1)Nc1c(-c2ccccc2)nc2ccccn12`: 574 s; for `CC1=C(c2ccc(C)cc2)S(=O)(=O)N=C1N1CCC(NC(=O)Cc2cccs2)CC1`: 858 s. For `CCNC(=O)C1CCCN1C(=O)Nc1ccccc1` (stereo not given), the RP-LC retention time was found to be 619 s. The same measure for `CCc1nc2c(=O)n(CC(=O)N3CCCC(C)C3)nc(C)c2s1` (stereo not given): 726 s; for `CC1CCN(C(=O)C2CCN(c3nc4ccc(-c5cccnc5)nc4s3)CC2)CC1`: 630 s; for `NC1=N[C@@]2(c3cc(NC(=O)c4ccc(F)cn4)ccc3F)COC[C@H]2CS1`: 674 s. The same measure for `O=C1CC(c2noc(-c3cc(F)cc(F)c3)n2)CN1c1ccc(Cl)cc1` (stereo not given): 1100 s; for `Cc1ccccc1S(=O)(=O)N1CCC(n2cnnc2C(C)C)CC1`: 738 s.

`O=C(Cn1nc2c(N3CCN(c4ccccc4)CC3)nccn2c1=O)Nc1cccc(Cl)c1` registered an RP-LC retention time of 964 s. The same measure for `Cc1nc(C)c(C(=O)NC2CCN(c3ccc(=O)n(CCOc4ccccc4)n3)C2)s1` (stereo not given): 703 s; for `CCc1nc2cc(N3CCC(C(=O)NC(C)CC)CC3)cnc2nc1CC` (stereo not given): 758 s; for `Cc1nnc(NC(=O)Cn2cccn2)s1`: 562 s. Compound `CN(CC1CCOC1)C(=O)Nc1ccccc1Cl` (stereo not given) came in with an RP-LC retention time of 722 s. The same measure for `Cc1cc(NS(=O)(=O)c2cc(-c3nc(C(C)(C)C)cs3)cs2)ccc1F`: 1220 s; for `CCC(CC)CN1CCC(n2c(C)cnc2-c2ccccc2)C1` (stereo not given): 559 s; for `O=S(=O)(c1ccc(Br)cc1)N1CCCC(COCc2ccccc2)C1` (stereo not given): 1220 s. `O=C1CCCc2nc(N3CCN(c4ccccc4F)CC3)ncc21` yielded an RP-LC retention time of 1060 s. The same measure for `Cn1c(=O)c(-c2ccc(C(=O)NCC3CCCO3)cc2)nc2ccccc21` (stereo not given): 724 s; for `Brc1ccc(OCc2nn3c(-c4ccccn4)nnc3s2)cc1`: 872 s; for `COc1cccc(N2CCN(S(=O)(=O)c3cc(-c4cc(C(F)(F)F)on4)cs3)CC2)c1`: 1200 s.

`CCOC(=O)C1=C(CN2CCC(c3ccccc3)C2)NC(=O)NC1c1cccs1` (stereo not given) gave an RP-LC retention time of 681 s. On to `COc1cc(OC)cc(-c2noc(CCn3nc(-c4ccc5c(c4)OCO5)ccc3=O)n2)c1`, for which the RP-LC retention time was 908 s. The same measure for `Cc1noc(C)c1CNC(=O)Cc1ccc(F)cc1`: 713 s; for `CN(C)CCNC(=O)c1cc2n(n1)CC(C)(C(=O)NCc1ccc(F)cc1)N(C)C2=O` (stereo not given): 576 s.

Compound `COc1ccccc1NC(=O)Cn1c(=O)n(-c2ccccc2)c(=O)c2c1cc(C)n2C` yielded an RP-LC retention time of 971 s. In turn, `Cc1c(Cl)cccc1Nc1c(-c2ccc(Br)cc2)nc2cnccn12` returned an RP-LC retention time of 1160 s. The same measure for `O=C(Cc1cccs1)N1CCCn2nc(-c3ccncc3)cc2C1`: 591 s; for `O=S(=O)(Cc1ccccc1Cl)N1CCc2nc(-c3ccc(Cl)cc3)ncc2C1`: 1220 s. The same measure for `Cn1cnc(S(=O)(=O)N2CC[C@@H]3COCCN(Cc4ccccc4)[C@@H]3C2)c1`: 586 s; for `CCCN(C)C(=O)c1ccc2nc(-c3ccccc3)cn2c1`: 618 s; for `Cc1nc2nc(-c3ccccc3)nn2c(C)c1CC(=O)NC(C)C`: 700 s. In turn, `CC(C)n1cnc2cc(CNC(=O)c3ccccc3Cl)ccc21` returned an RP-LC retention time of 597 s. The same measure for `O=C(CN1C(=O)CCC1=O)N1CCC(c2noc(-c3cnccn3)n2)C1` (stereo not given): 591 s; for `CCOc1ccc(NC(=O)C2CCN(c3cc(Oc4ccc(CC)cc4)ncn3)CC2)cc1`: 1080 s; for `COCCCn1c(=O)c2ccccc2n(Cc2nc(-c3ccccc3)no2)c1=O`: 994 s. The same measure for `Cc1ccc(-c2csc(NC(=O)CCc3nc(CSc4nc5ccc(C)cc5[nH]4)no3)n2)cc1`: 852 s; for `CCCNC(=O)c1ncn2c1C(=O)N(C1CC1)C(C)(C(=O)NCc1cccc(C)c1)C2` (stereo not given): 717 s; for `O=C(NCc1ccccc1)C1CCCN(c2ncnc3c2nc2n3CCCCC2)C1` (stereo not given): 732 s. The same measure for `CCCNC(=O)c1cc2sccc2n1Cc1ccc(C)cc1`: 1060 s; for `CN(Cc1ccccc1)c1ccc(-c2noc(CN3CCN(c4ccccc4)CC3)n2)cn1`: 1100 s.

Turning to `O=C(NCc1ccc(F)c(Cl)c1)C1CCN(c2cnc3nccnc3c2)CC1`, the RP-LC retention time was 757 s. The same measure for `O=C(NCc1csc(-c2ccccc2)n1)[C@H]1CCCN1C(=O)COc1ccc(Cl)cc1`: 861 s. The same measure for `CCS(=O)(=O)N1CC(=O)N(c2cc(C)cc(C)c2)C(C)(C(=O)NCc2ccc(F)cc2)C1` (stereo not given): 892 s. The same measure for `Cc1ccccc1C(=O)NCc1nn(C)c2ccccc12`: 857 s; for `Cc1ccc2[nH]cc(CCN3CC(C(=O)N4CCc5ccccc5C4)CC3=O)c2c1` (stereo not given): 698 s; for `O=C(NCCCN1CCCCC1)C1CCCN(c2ncc(-c3ccc(F)cc3)cn2)C1` (stereo not given): 684 s. For the compound `CC(CCNC(=O)c1cc(S(=O)(=O)N2CCCCC2)ccc1Cl)N1CCCC1` (stereo not given), the RP-LC retention time was 643 s.

`CCCN(C)C(=O)COc1ccc(NC(=O)C2CC2)cn1` returned an RP-LC retention time of 666 s. The same measure for `CC(=O)Nc1ccc(S(=O)(=O)NCC2CCN(Cc3cccs3)CC2)c(C)c1`: 547 s; for `Cc1ccc(-n2nc(C)c3sc(N4CCCC(C(=O)Nc5ccccc5C)C4)nc32)cc1` (stereo not given): 1220 s. The same measure for `CCCN1C(=O)C(C)(C(=O)Nc2ccc(OCC)cc2)Oc2cccnc21` (stereo not given): 966 s; for `Cc1ccccc1Nc1c(-c2ccc(N(C)C)cc2)nc2cccc(C)n12`: 811 s; for `O=C(C1CCCO1)N1CCC(CCOc2ccccc2)CC1` (stereo not given): 844 s. As to `CC(=O)N1CCc2cc(N3CC(C(=O)NC4CCCC4)CC3=O)ccc21` (stereo not given), the RP-LC retention time stood at 642 s. The same measure for `Cc1ccc(CNC(=O)C2Cn3cccc3C(=O)N2CC(C)C)o1` (stereo not given): 746 s.

In turn, `Cc1cc(-c2ccc(C)c(S(=O)(=O)Nc3ccc(Cl)cc3)c2)n[nH]1` came in with an RP-LC retention time of 898 s.

Consider `CCOc1ccc(NC(=O)C2CCN(S(=O)(=O)c3cn(CC)cn3)CC2)cc1`, for which the RP-LC retention time came to 784 s. `Cc1cnc(C(=O)NC2C[C@H]3CC[C@@H](C2)N3C(=O)c2ccc(C)s2)cn1` (stereo not given in full): the RP-LC retention time came out at 683 s.

Regarding `CCC(=O)N1CCN(c2nc3c(s2)CC(C(=O)NC(CC)CC)CC3)CC1` (stereo not given), the RP-LC retention time was 546 s.

The compound `COc1cc(NC(=O)C2(Cc3ccccc3)CCCCC(=O)N2)cc(OC)c1` (stereo not given) gave an RP-LC retention time of 847 s. For `O=C(Cn1nc2c(Oc3cccc(F)c3)nccn2c1=O)Nc1ccccc1`, the RP-LC retention time is 810 s. As to `CC1=C(c2ccccc2)S(=O)(=O)N=C1N1CCCN(C(=O)CCC2CCCC2)CC1`, the RP-LC retention time is 946 s.

Consider `COc1ccc(-c2c(C)noc2NC(C)=O)cc1S(=O)(=O)Nc1ccc(F)cc1`, for which the RP-LC retention time is 736 s. For the compound `Cc1cc(NC(=O)N2CCC(c3cc(N)on3)CC2)ccc1Br`, the RP-LC retention time turned out to be 790 s.

`CC1CCN(S(=O)(=O)c2cccc(-c3nnc(-c4ccc(F)cc4)o3)c2)CC1` had an RP-LC retention time of 1150 s. In turn, `Cc1cccc(CN2CCCn3nc(C(=O)NC4CCCC4)cc3C2=O)c1` yielded an RP-LC retention time of 879 s. The same measure for `CCN1C(=O)COc2ccc(-c3noc(/C=C/c4ccc(OC)cc4)n3)cc21`: 1130 s; for `COc1ccccc1N1CCN(Cc2nc3nc(C)cc(N(C)C)n3n2)CC1`: 606 s. The same measure for `CCOC(=O)Cn1c(C2CC(=O)N(c3ccc(OC)cc3)C2)nc2ccccc21` (stereo not given): 762 s; for `O=C(Nc1ccsc1-c1nnc(C2CC2)o1)c1cccs1`: 1160 s; for `Cn1c(=O)c2c(C(=O)N3CCN(c4cccc(C(F)(F)F)c4)CC3)cc(=O)n(C)c2n(C)c1=O`: 943 s. The same measure for `Cc1ccc(CNC(=O)C2(C)CCCN(C(=O)Nc3cc(C)cc(C)c3)C2)cc1` (stereo not given): 912 s; for `COCC(=O)N1CCCN(C2=NS(=O)(=O)C(c3ccc(Cl)cc3)=C2C)CC1`: 723 s; for `CN1C(=O)c2cccn2CC1C(=O)NC1CCCCCC1` (stereo not given): 731 s. The compound `CSc1ccc(CNC(=O)Cn2c(=O)cc(-c3nc(C)no3)c3ccccc32)cc1` came in with an RP-LC retention time of 859 s. The same measure for `O=C(CCC1CCCC1)NC1CCN(c2ccc(=O)[nH]n2)C1` (stereo not given): 649 s; for `CCCCN1N=C(C(=O)N2CCC(C)CC2)S(=O)(=O)c2ccccc21`: 1030 s.
